Results: US20160115200A1, “New Use for JNK Inhibitor Molecules for Treatment of Various Diseases” (XIGEN INFLAMMATION LTD., priority 2013, published 2016)
Square brackets hold non-standard residues; d marks the D form. Peptide text beside a SMILES is read from it.

What was measured:
[1] = dissolved in 0.9% NaCl, up to 0.4 mg/ml
Text: To receive three different doses (cf. above, groups table) it has been serially diluted (1:10 fold).

human whole blood = test: Cytokine release in human whole blood stimulated 4 hours with LPS or PMA+ionomycin; assay type: cell-based; conditions: human whole blood, 1, 3, 10 μM
Protocol: FIG. 18 JNK inhibition and IL-6 release in human whole blood. The JNK inhibitor with SEQ ID NO: 172 was added at three different concentrations, namely 1, 3 and 10 μM 1 h before whole blood stimulation with LPS (0.02 ng/mL) for 4 hours.
FIG. 19 JNK inhibition and IL-2 release in human whole blood. The JNK inhibitor with SEQ ID NO: 172 was added at three different concentrations, namely 1, 3 and 10 μM 1 h before whole blood stimulation with PMA+ionomycin (25/700 ng/mL, 50/800 ng/mL and 50/1000 ng/mL) for 4 hours.
(§1) Whole blood is collected from anesthetized rat or human healthy volunteers using a venipuncture connected to a pre-labeled vacuum tube containing sodium citrate. Tubes are gently mixed by inversion 7-8 times; and are then kept at RT until stimulation. JNK inhibitor of SEQ ID NO: 172 is prepared 6 times concentrated in PBS, and 30 μl/well of mix is added into 96-well plate. Whole blood is diluted by 1:2 in PBS and 120 μl of diluted blood is added in each well where either PBS alone or JNK inhibitor of SEQ ID NO: 172 has been previously added. Whole blood is incubated at 37° C.; 85 rpm (Stuart Orbital incubator SI500) for 60 min. Activators (LPS) are the prepared, 30 μl/well of LPS, 6 times concentrated. After 60 min incubation, LPS is added to the blood, blood is mixed by pipetting up and down, and then kept for 4 h under agitation (85 rpm), at 37° C. After the 4 h incubation, the plates are centrifuged at about 770 g, 4° C. for 15 min in a pre-cooled centrifuge. Supernatants are finally collected and kept at −20° C. until cytokine measurement. Cytokine (IL-6, IL-2, IFNγ and TNFα) were then measured using standard Elisa kits (e.g. from R&D Systems: DuoSet Elisas; or from BD Biosciences: BD Opteia Set Elisa). Results are expressed as pg/ml of supernatant of the measured cytokine.
A similar experiment was conducted with PMA+ionomycin instead of LPS as activator/stimulant.

[2] = test system: IMQ-induced psoriasis in BALB/c mice; test: Imiquimod-induced psoriasis in mice, ear histopathology; assay type: in vivo, mouse
Protocol: Female BALB/cAnNCrl mice (Charles River, age 8 to 10 weeks at study start) have been assigned to the following groups (treatment schedule):
In this experiment, two positive controls have been utilized. Firstly, Prednisolone at 10 mg/kg (vehicle: 1% Hydroxyethylcellulose, 0.25% Polysorbate 80, and 0.05% Antifoam in purified water) has been dosed daily and orally (group “Prednisolone”). Secondly, Dexamethasone has been administered at 0.5 mg/kg (vehicle: sterile 0.9% NaCl) on days 1, 4 and 7 via intravenous route.
On day 8, animals have been sacrificed and the tissue (ear) has been fixed in 10% neutral buffered formalin. For histopathology hematoxylin-and-eosin-stained sections (cross cut) have been prepared and microscopic evaluation on the collected tissues from all animals has been performed. Methods and end-points for histopathology were similarly described in the van der Fits (2009) paper in that inflammation, epidermal hyperplasia, epidermal hyperkeratosis (rather than parakeratosis) were observed and recorded for severity grade, whereby the respective methodology from Van der Fits et al. (The Journal of Immunology 2009, 182, P. 5836-5845) is hereby incorporated by reference. Histopathology grading scores were excluded for either skin or ear in animals with secondary inflammatory processes (full thickness epidermal ulcers). Scores were averaged by group and standard deviation and statistical significance were calculated. […] Formalin-fixed, paraffin embedded skin from the dorsal surface of the mouse (BALB/c) was stained with hematoxylin and eosin (H&E) stain and assessed microscopically. An important difference from the above reference and to describe in more detail the observations of the present study: Hyperkeratosis can be defined specifically as orthokeratotic (no retained nuclei) or parakeratotic (retained nuclei). Either can occur normally in various anatomical locations and depending on species; however, both conditions are well defined in particular disease states. The van der Fits paper describes their Imiquimod (IMQ)-induced psoriasis model as causing parakeratotic hyperkeratosis similar to what is seen in the human condition, and that was a defined end-point for this study. However, the Danilenko et al. (Veterinary Pathology 2008 45:563) has shown that many rodent psoriasis models have orthokeratotic hyperkeratosis. […] The more general term ‘hyperkeratosis’ was used for grading end-points and describe in the text what type was seen (primarily orthokeratotic).
1=MI=minimal 2=SL=slight 3=M0=moderate 4=MA=marked 5=SE=severe

[3] = test system: Primary Rat Whole Blood Cells; test: Cytokine release in rat whole blood stimulated with LPS or PMA+ionomycin; assay type: cell-based; conditions: 10 μM inhibitor, PMA+ionomycin 25/500, 50/750, 50/1000 ng/mL, 4 h
Protocol: Given are the results for the control, 1 μM of SEQ ID NO: 172, 3 μM of SEQ ID NO: 172, and 10 μM of SEQ ID NO: 172 at different levels of LPS (ng/ml).
FIG. 17 Dose dependent inhibition of IL-2 release in rat whole blood stimulated with PMA+ionomycin. JNK inhibitor with SEQ ID NO: 172 was added at three different concentrations, namely 1, 3 and 10 μM 1 h before stimulation with PMA+ionomycin. Three doses of activators were added (25/500 ng/mL, 50/750 ng/mL and 50/1000 ng/mL) for 4 h. IL-2 release was assessed in supernatant.
as §1, with “Activators (LPS) are the prepared, 30 μl/well of LPS, 6 times concentrated. After 60 min incubation, LPS is added to the blood, blood is mixed by pipetting up and down, and then kept for 4 h under agitation (85 rpm), at 37° C. After the 4 h incubation, the plates are centrifuged at about 770 g, 4° C. for 15 min in a pre-cooled centrifuge. Supernatants are finally collected and kept at −20° C. until cytokine measurement.” left out, “cytokine. […]” for “cytokine.”

SMILES: CC(C)C[C@H](NC(=O)[C@H](CC(N)=O)NC(=O)[C@H](CC(C)C)NC(=O)[C@@H](NC(=O)[C@@H](C)NC(=O)[C@@H]1CCCN1C(=O)[C@H](CCCNC(=N)N)NC(=O)[C@@H](CCCCN)NC(=O)[C@@H]1CCCN1C(=O)[C@H](CCCNC(=N)N)NC(=O)[C@@H](CCCNC(=N)N)NC(=O)[C@H](CCCNC(=N)N)NC(=O)[C@H](CCCNC(=N)N)NC(=O)[C@H](CCC(N)=O)NC(=O)[C@@H](CCCNC(=N)N)NC(=O)[C@H](CCCNC(=N)N)NC(=O)[C@H](CCCCN)NC(=O)[C@H](CCCCN)NC(=O)[C@H](N)CCCNC(=N)N)[C@@H](C)O)C(=O)N[C@H](Cc1ccccc1)C(N)=O [SEQ ID NO: 172, rKKRrQRRrRPkRPaTLNLf] (H-[dR]KKR[dR]QRR[dR]RP[dK]RP[dA]TLNL[dF]-NH2)
- solubility [1]: readily soluble
- PMA+ionomycin-induced IFN-γ release (human whole blood): reduce the PMA+ionomycin-induced IFN-γ release in a dose-dependent manner
- PMA+ionomycin-induced IL-2 release (human whole blood): reduce the PMA+ionomycin-induced IL-2 release in a dose-dependent manner
- PMA+ionomycin-induced TNF-α release (human whole blood): reduce the PMA+ionomycin-induced TNF-α release in a dose-dependent manner
- LPS-induced IL-6 release (human whole blood; LPS 0.02 ng/mL): reduce the LPS-induced IL-6 release in a dose-dependent manner
- inflammation of the ear (average histopathology grade) vs vehicle-IMQ group ([2]; high-dose 2 mg/kg IV days 1, 4, 7): decreased inflammation of the ear
- epidermal hyperkeratosis of the ear, average grades vs vehicle-IMQ group ([2]; low-dose 0.02 mg/kg IV days 1, 4, 7): minimally decreased average grades
- inflammation of the ear (average histopathology grade) vs vehicle-IMQ group ([2]; mid-dose 0.2 mg/kg IV days 1, 4, 7, statistically significant, 0.2 mg/kg): decreased inflammation of the ear
- inflammation of the ear (average histopathology grade) vs vehicle-IMQ group ([2]; mid-dose 0.2 mg/kg IV days 1, 4, 7, statistically significant, listed as XG-104, 0.2 mg/kg): significant differences from the vehicle control group
- epidermal hyperplasia of the ear vs vehicle-IMQ group ([2]; mid-dose 0.2 mg/kg IV, not statistically significant): Minimal decreases in epidermal hyperplasia of the ear
- PMA-iono-induced IL-2 release [3]: efficiently reduce
